From publication PMC11912122, “Gut in Tube—Continuous Measurement of Metabolic Crosstalk between Cell Populations in Heterogeneous Samples by NMR Imaging” (Analytical Chemistry, 2025)
Square brackets hold non-standard residues; d marks the D form. Peptide text beside a SMILES is read from it. Phe(4-F) = N[C@@H](Cc1ccc(F)cc1)C(=O)O

Test system: Cocultures of colonocytes (Caco-2, HT29, T84, SW620)
Assay: Cell viability assay (MTT)
Assay type: cell-based, human
Conditions: peptide 1.6 mg/mL, 37 °C, 3 h, OD590, % viability vs control, n=3
Description: Individual cell lines (Caco-2, HT29, T84, and SW620) were grown from frozen stocks, prepared at ca. 1 million/mL. Cells were seeded in a T-75 tissue culture flask, passaged once, and matured to ca. 10 million/mL in a T-175 flask in complete media. Cells were rinsed twice with Ca^2+/Mg^2+-free PBS (25 mL, CAS D8537), trypsinized, the trypsin deactivated with P/S-free complete media, all four lineages mixed in a 1:1:1:1 ratio, pelleted (300 rcf, 5 min), and resuspended in alginate (sodium alginate, CAS 9005–38–3, 1% w/v in P/S-free complete media). The cell suspension was extruded through a 200 μL pipet tip dropwise into cold CaCl2 (0.3 M in phosphate-buffered saline, PBS, CAS D8662, 15 °C) under stirring (100 r.p.m.). The cell spheres (Figures S1 and S2, Supporting Information (SI)) were removed from the CaCl2 solution, washed, and stored in P/S-free complete media before further use.
The effect of the peptide on cell viability was measured using a cell proliferation kit (CAS 11465007001). 3-[4,5-Dimethylthiazole-2-yl]-2,5-diphenyltetrazolium bromide (MTT) was solubilized in PBS (5 mg/mL) and filter-sterilized (0.22-μm). Cocultures of colonocytes were grown in phenol red-free complete media in 24-well plates to ca. 50% confluency. […] The absorbance (OD590) in each well was read, and % viability was calculated against the control (Figure S6, SI).

C[C@H](NC(=O)[C@@H](N)Cc1ccc(F)cc1)C(=O)N[C@@H](Cc1c[nH]cn1)C(=O)N[C@@H](Cc1c[nH]c2ccccc12)C(N)=O [p-F-Phe-Ala-His-Trp] (H-[Phe(4-F)]AHW-NH2)
effect on colonocyte viability: no significant (p > 0.05) effect and ns
